# Data taken from patent publication US20190343908A1, “Therapeutic Combination for the Treatment of Cancer” (Nerium Biotechnology Inc., priority 2011, published 2019).
# Columns and labels:
# [1] = tested on: COLO699N lung cancer cell line; assay: Sulforhodamine B viability assay, COLO699N; type: cell-based, human; parameters: key to SRB Average: absorbance (optical density) at 570 nm, second wavelength subtracted; conditions: for Average SRB 24 h / Average SRB 48 h / Average SRB 72 h: COLO699N Run 1; for ABSORBANCE: COLO699N, 0.1 μg/mL cisplatin
# Text: (§1) Three different viability assays were chosen to complement each other and yielded results dependent on concentration and cell line: the Methyl Tetrazolium dye assay, the Sulforhodamine B fluorescent dye assay, and the Crystal Violet dye assay.
# (§2) The Sulforhodamine B and Crystal Violet assays provide information about protein and were used to complement the Methyl-Tetrazolium dye assay. […] It is used for the quantification of cellular proteins of cultured cells. The assay using Crystal Violet, a dye that binds electrostatically to proteins and stains DNA, provides a reliable, simple assay for measuring viability of cells.
# (§3) The Methyl Tetrazolium, Sulforhodamine B, and Crystal Violet assays were used to assess cell viabilities. The incubation times were 24 hours, 48 hours, and 72 hours. The Nerium oleander extract Anvirzel™ (a hot water extract of oleander obtained from Salud Integral, Honduras) was tested in concentrations ranging from 0.01 ng/mL to 10 ng/mL.
# (§4) Cells were detached by trypsinization (Trypsin-0.25% EDTA, Invitrogen, 25200-072) during the logarithmic phase of culture growth and plated in 96-well plates (18.000 cells/well) (Corning, Costar 359) in a final volume of 200 μl of medium per well. […] The absorbance was measured after 24 hours, 48 hours, and 72 hours of incubation.
# (§5) For the Sulforhodamine B assay, 96-well plates were fixed by 10% trichloroacetic acid (Fluka, 91228) and were incubated at 4° C. for 1 hour. Afterwards, plates were rinsed with water and cells were stained with 0.4% Sulforhodamine B (Sigma, 341738), dissolved in 1% acetic acid (Carlo Ebra, 401422) for 15 minutes at room temperature (RT). The unbound stain was washed twice with 1% acetic acid. Finally, 10 mM Tris Buffer pH 10.5 (Sigma, T6791) was added to dissolve the dye.
# (§6) The optical density of each plate was measured on a μQuant spectrophotometer and the data were analyzed with Gen5 software (μQuant Biomolecular Spectrophotometer MQX200 and Gen5™ Microplate Data Collection & Analysis software, BioTek® Instruments. Inc, April 2008). Absorbance was measured at 570 nm for all assays and a second wavelength was measured in order to subtract noise. For the Methyl-Tetrazolium assay this second wavelength was 630 nm and for the Sulforhodamine B and Crystal Violet assays it was 690 nm.
# [2] = tested on: MDA-MB 231 (human breast cancer); assay: Sulforhodamine B viability assay, MDA-MB 231; type: cell-based; conditions: for SRB 24 h / SRB 48 h / SRB 72 h: Run 3 average
# Text: as §1, §2, §3, §4, §5, §6
# [3] = tested on: LNCaP prostate cancer cell line; assay: Sulforhodamine B viability assay, LNCaP; type: cell-based, human; conditions: for ABSORBANCE: LNCaP, 0.1 μg/mL cisplatin
# Text: as §1, §2, §3, §4, §5, §6
structure (smiles),measurement,setting,value
N.N.[Cl][Pt][Cl] [cisplatin],Average SRB 24 h,[1]; 0.1 μg/ml CDDP,1.552
same,Average SRB 48 h,"[1]; 0.1 μg/ml CDDP, 48 h",1.317
same,Average SRB 72 h,"[1]; 0.1 μg/ml CDDP, 72 h",1.658
same,Average SRB 24 h,[1]; 1 μg/ml CDDP,1.526
same,Average SRB 48 h,"[1]; 1 μg/ml CDDP, 48 h",1.388
same,Average SRB 72 h,"[1]; 1 μg/ml CDDP, 72 h",1.152
same,Average SRB 24 h,[1]; 10 μg/ml CDDP,1.384
same,Average SRB 48 h,"[1]; 10 μg/ml CDDP, 48 h",1.524
same,Average SRB 72 h,"[1]; 10 μg/ml CDDP, 72 h",0.922
same,Average SRB 24 h,[1]; 100 μg/ml CDDP,1.085
same,Average SRB 48 h,"[1]; 100 μg/ml CDDP, 48 h",1.452
same,Average SRB 72 h,"[1]; 100 μg/ml CDDP, 72 h",1.114
same,ABSORBANCE,[1]; 48 h,1.975
same,ABSORBANCE,[1]; 72 h,2.145
same,SRB Average,"[1]; Run 2, 24 h, 0.1 μg/ml CDDP",1.709
same,SRB Average,"[1]; Run 2, 24 h, 1 μg/ml CDDP",1.61
same,SRB Average,"[1]; Run 2, 24 h, 10 μg/ml CDDP",1.523
same,SRB Average,"[1]; Run 2, 24 h, 100 μg/ml CDDP",1.354
same,SRB Average,"[1]; Run 2, 48 h, 0.1 μg/ml CDDP",1.975
same,SRB Average,"[1]; Run 2, 48 h, 1 μg/ml CDDP",1.253
same,SRB Average,"[1]; Run 2, 48 h, 10 μg/ml CDDP",1.27
same,SRB Average,"[1]; Run 2, 48 h, 100 μg/ml CDDP",1.256
same,SRB Average,"[1]; Run 2, 72 h, 0.1 μg/ml CDDP",2.145
same,SRB Average,"[1]; Run 2, 72 h, 1 μg/ml CDDP",1.256
same,SRB Average,"[1]; Run 2, 72 h, 10 μg/ml CDDP",1.524
same,SRB Average,"[1]; Run 2, 72 h, 100 μg/ml CDDP",1.312
same,SRB Average,"[1]; Run 3, 24 h, 0.1 μg/ml CDDP",1.99
same,SRB Average,"[1]; Run 3, 24 h, 1 μg/ml CDDP",1.839
same,SRB Average,"[1]; Run 3, 24 h, 10 μg/ml CDDP",1.527
same,SRB Average,"[1]; Run 3, 24 h, 100 μg/ml CDDP",1.387
same,SRB Average,"[1]; Run 3, 48 h, 0.1 μg/ml CDDP",1.978
same,SRB Average,"[1]; Run 3, 48 h, 1 μg/ml CDDP",1.092
same,SRB Average,"[1]; Run 3, 48 h, 10 μg/ml CDDP",1.259
same,SRB Average,"[1]; Run 3, 48 h, 100 μg/ml CDDP",1.218
same,SRB Average,"[1]; Run 3, 72 h, 0.1 μg/ml CDDP",1.946
same,SRB Average,"[1]; Run 3, 72 h, 1 μg/ml CDDP",1.249
same,SRB Average,"[1]; Run 3, 72 h, 10 μg/ml CDDP",1.014
same,SRB Average,"[1]; Run 3, 72 h, 100 μg/ml CDDP",1.033
same,SRB 24 h Average,"[2]; Run 1, 0.1 μg/ml CDDP",1.792
same,SRB 48 h Average,"[2]; Run 1, 0.1 μg/ml CDDP",2.678
same,SRB 72 h Average,"[2]; Run 1, 0.1 μg/ml CDDP",2.873
same,SRB 24 h Average,"[2]; Run 1, 1 μg/ml CDDP",1.395
same,SRB 48 h Average,"[2]; Run 1, 1 μg/ml CDDP",2.254
same,SRB 72 h Average,"[2]; Run 1, 1 μg/ml CDDP",2.928
same,SRB 24 h Average,"[2]; Run 1, 10 μg/ml CDDP",1.785
same,SRB 48 h Average,"[2]; Run 1, 10 μg/ml CDDP",2.489
same,SRB 72 h Average,"[2]; Run 1, 10 μg/ml CDDP",2.962
same,SRB 24 h Average,"[2]; Run 1, 100 μg/ml CDDP",1.752
same,SRB 48 h Average,"[2]; Run 1, 100 μg/ml CDDP",2.457
same,SRB 72 h Average,"[2]; Run 1, 100 μg/ml CDDP",2.852
same,SRB 24 h Average,"[2]; Run 2, 0.1 μg/ml CDDP",1.576
same,SRB 48 h Average,"[2]; Run 2, 0.1 μg/ml CDDP",1.83
same,SRB 72 h Average,"[2]; Run 2, 0.1 μg/ml CDDP",2.1
same,SRB 24 h Average,"[2]; Run 2, 1 μg/ml CDDP",1.27
same,SRB 48 h Average,"[2]; Run 2, 1 μg/ml CDDP",1.162
same,SRB 72 h Average,"[2]; Run 2, 1 μg/ml CDDP",0.883
same,SRB 24 h Average,"[2]; Run 2, 10 μg/ml CDDP",1.598
same,SRB 48 h Average,"[2]; Run 2, 10 μg/ml CDDP",1.867
same,SRB 72 h Average,"[2]; Run 2, 10 μg/ml CDDP",1.755
same,SRB 24 h Average,"[2]; Run 2, 100 μg/ml CDDP",1.509
same,SRB 48 h Average,"[2]; Run 2, 100 μg/ml CDDP",1.048
same,SRB 72 h Average,"[2]; Run 2, 100 μg/ml CDDP",1.004
same,SRB 24 h,[2]; 0.1 μg/ml CDDP,2.643
same,SRB 48 h,[2]; 0.1 μg/ml CDDP,2.742
same,SRB 72 h,[2]; 0.1 μg/ml CDDP,2.87
same,SRB 24 h,[2]; 1 μg/ml CDDP,1.382
same,SRB 48 h,[2]; 1 μg/ml CDDP,1.537
same,SRB 72 h,[2]; 1 μg/ml CDDP,2.07
same,SRB 24 h,[2]; 10 μg/ml CDDP,2.134
same,SRB 48 h,[2]; 10 μg/ml CDDP,2.364
same,SRB 72 h,[2]; 10 μg/ml CDDP,2.593
same,SRB 24 h,[2]; 100 μg/ml CDDP,1.141
same,SRB 48 h,[2]; 100 μg/ml CDDP,1.464
same,SRB 72 h,[2]; 100 μg/ml CDDP,1.493
same,SRB Average,"[3]; LNCaP Run 3, 24 h, 0.1 μg/ml CDDP",1.975
same,SRB Average,"[3]; LNCaP Run 3, 24 h, 1 μg/ml CDDP",1.541
same,SRB Average,"[3]; LNCaP Run 3, 24 h, 10 μg/ml CDDP",1.242
same,SRB Average,"[3]; LNCaP Run 3, 24 h, 100 μg/ml CDDP",1.2
same,SRB Average,"[3]; LNCaP Run 3, 48 h, 0.1 μg/ml CDDP",1.761
same,SRB Average,"[3]; LNCaP Run 3, 48 h, 1 μg/ml CDDP",1.56
same,SRB Average,"[3]; LNCaP Run 3, 48 h, 10 μg/ml CDDP",1.46
same,SRB Average,"[3]; LNCaP Run 3, 48 h, 100 μg/ml CDDP",1.284
same,SRB Average,"[3]; LNCaP Run 3, 72 h, 0.1 μg/ml CDDP",2.009
same,SRB Average,"[3]; LNCaP Run 3, 72 h, 1 μg/ml CDDP",1.584
same,SRB Average,"[3]; LNCaP Run 3, 72 h, 10 μg/ml CDDP",1.561
same,SRB Average,"[3]; LNCaP Run 3, 72 h, 100 μg/ml CDDP",1.421
same,ABSORBANCE,[3]; 48 h,1.681
same,ABSORBANCE,[3]; 72 h,1.766
same,Average SRB 24 h,"[3]; Run 1, 0.1 μg/ml CDDP",1.611
same,Average SRB 48 h,"[3]; Run 1, 0.1 μg/ml CDDP",2.798
same,Average SRB 72 h,"[3]; Run 1, 0.1 μg/ml CDDP",2.532
same,Average SRB 24 h,"[3]; Run 1, 1 μg/ml CDDP",1.294
same,Average SRB 48 h,"[3]; Run 1, 1 μg/ml CDDP",2.888
same,Average SRB 72 h,"[3]; Run 1, 1 μg/ml CDDP",2.483
same,Average SRB 24 h,"[3]; Run 1, 10 μg/ml CDDP",1.205
same,Average SRB 48 h,"[3]; Run 1, 10 μg/ml CDDP",2.893
same,Average SRB 72 h,"[3]; Run 1, 10 μg/ml CDDP",2.648
same,Average SRB 24 h,"[3]; Run 1, 100 μg/ml CDDP",1.2
same,Average SRB 48 h,"[3]; Run 1, 100 μg/ml CDDP",2.555
same,Average SRB 72 h,"[3]; Run 1, 100 μg/ml CDDP",2.649
same,Average SRB 24 h,"[3]; Run 2, 0.1 μg/ml CDDP",1.78
same,Average SRB 48 h,"[3]; Run 2, 0.1 μg/ml CDDP",1.681
same,Average SRB 72 h,"[3]; Run 2, 0.1 μg/ml CDDP",1.766
same,Average SRB 24 h,"[3]; Run 2, 1 μg/ml CDDP",1.495
same,Average SRB 48 h,"[3]; Run 2, 1 μg/ml CDDP",1.14
same,Average SRB 72 h,"[3]; Run 2, 1 μg/ml CDDP",1.396
same,Average SRB 24 h,"[3]; Run 2, 10 μg/ml CDDP",0.982
same,Average SRB 48 h,"[3]; Run 2, 10 μg/ml CDDP",1.077
same,Average SRB 72 h,"[3]; Run 2, 10 μg/ml CDDP",1.28
same,Average SRB 24 h,"[3]; Run 2, 100 μg/ml CDDP",0.985
same,Average SRB 48 h,"[3]; Run 2, 100 μg/ml CDDP",1.138
same,Average SRB 72 h,"[3]; Run 2, 100 μg/ml CDDP",1.25
